Test results from patent US7445790B2, “External preparations for skin” (Shiseido Company, Ltd., priority 2002, dated 2008).

What was measured:
[1] = IOB value of the oil component; assay type: physicochemical; details: obtained oil component
[2] = Solubility of a slightly soluble triazine-type ultraviolet absorbent in oil components at 0° C.; assay type: physicochemical; details: concentration (mass percentage) in a saturated solution at 0° C. of 2,4-bis{[4-(2-ethylhexyloxy)-2-hydroxy]phenyl}-6-(4-methoxyphenyl)1,3,5-triazine in the oil component
Text: (§1) For the slightly soluble ultraviolet absorbent, a triazine-type ultraviolet absorbent 2,4-bis{[4-(2-ethylhexyloxy)-2-hydroxy]phenyl}-6-(4-methoxyphenyl)1,3,5-triazine was used.
This oil component is a mixture of alkyl benzoates having 12-15 carbon atoms.
as §1

Row | SMILES | IOB value [1] | Solubility ([2]; Table 1-4) [%] | Solubility ([2]; Table 2-1) [%]
1 | CCCCC(CC)COC(=O)c1ccccc1 (centres unmarked) [2-ethylhexyl benzoate] | 0.26 |  | 
2 | CC(CCOC(=O)c1ccccc1)CC(C)(C)C (centres unmarked) [3,5,5-trimethylhexyl benzoate] | 0.26 |  | 
3 | CC(C)CCCC(C)CCOC(=O)c1ccccc1 (centres unmarked) [3,7-dimethyloctyl benzoate] | 0.23 |  | 
4 | C[Si]1(C)O[Si](C)(C)O[Si](C)(C)O[Si](C)(C)O[Si](C)(C)O1 [Decamethyl cyclopentane siloxane] |  | 0 | 0
